Entries after “also recorded” stand apart in the source; their conditions may differ.

The test system of the assay is Ro52-immunized guinea-pigs (anti-Ro Abs associated QTc prolongation). Briefly: QTc (ECG) in Ro52-immunized guinea pigs after linear peptide 4. The following applies: linear peptide 4, 2 mg/kg, one-time injection at day 15; ECG through day 30; versus immunized control without peptide. It is filed as in vivo, guinea pig. The source says:
Immunization and peptide administration protocol. The overall experimental protocol for immunization and administration of the peptide used to generate data in FIG. 2 is shown in FIG. 6. Specifically, two group of guinea pigs (control and experimental) were first immunized subcutaneously initially on day 0 (Do) with Ro52 antigen followed by a booster at days 10 and 15, and anti-Ro antibodies levels were monitored by ELISA. The control group was not administered any peptide treatment except the immunization. The experimental group was injected with the linear peptide #4 (2 mg/kg) at day 15.

Regarding GNMEQPHMDSRIGWLHNLGDQ [Peptide 4], the “effect on QTc interval” value is “rescued and normalized the QTc interval; also recorded: drastic shortening of QTc”.
